Here are results for three compounds from patent US10508090B2, “Sulfonamides as GPR40- and GPR120-agonists” (DOMPÉ FARMACEUTICI S.P.A., priority 2016, dated 2019).

The structures appear in SMILES notation.

A word on the AC50: it is the concentration at which the activity in the assay is half-maximal.

In one assay the target is T1, human GPR40 (Homo sapiens, UniProt O14842).
T1 construct: expressed in transfected cells; host or cells: CHO-k1
The assay is described as follows: In vitro Ca2+ mobilization, CHO-k1 cells stably expressing human GPR40. The format is cell-based. As to conditions: for AC50: read-out: Ca2+ hGPR40 AC50. The procedure: (§1) GPR120/40 Activation: In Vitro Ca^2+ Mobilization
(§2) The activation of GPR120/40 by all compounds was determined by measuring changes in intracellular calcium levels using a Ca^2+ sensitive fluorescent dye.
(§3) The experiments were performed using CHO-k1 cells stably expressing the human GPR120 or GPR40. Cells were seeded 10000 cells/well in 384-plates in complete medium and grown overnight at 37° C., 5% CO2. 24 h after seeding, cell culture media was removed and cells were loaded with the fluorescent Ca^2+ indicator (Fluo-8 NW dye in Tyrode's buffer). Dye-loaded cell plates were incubated for 1 h at room temperature under a yellow light sodium lamp.
(§4) Cell were treated with test compounds and controls at 10, 30 and 60 μM. The kinetic response was monitored over a period of 7 minutes (using FLIPRTETRA system). A second injection of 3× concentrated reference agonist at ˜EC50 were then administered to cells and the signal of the emitted fluorescence was measured over a period of additional 3 minutes. The agonist effect is expressed as a percentage of activation, with 100% activation being a result in which the Response Values of the test wells reach a level identical to the one of the Stimulator Controls (alpha linolenic acid reference agonist EC100). 0% activation is a result in which the Response Values of the test wells reach a level identical to the one of the Neutral Controls (assay buffer) in the AGO_KRV (Agonist Kinetic Response Value) response value.

A further assay deals with NCI-H716 cells. The assay can be described thus: In vitro GLP-1 secretion in differentiated NCI-H716 cells (ELISA). The class given is cell-based, human. The settings on record: for fold induction at 100 µM: Homo sapiens, NCI-H716, 0.5 h, compound at 100 μM for 30 minutes, differentiated NCI-H716 cells, read-out: GLP-1 RELEASE NCI, fold of increase over DMSO. On the procedure:
(§5) GPR120/40 Activation: In Vitro GLP-1 Secretion
(§6) 2×10^5 STC-1 cells were seeded in a 12-plate and 24 hours later were treated with selected compounds. 1×10^6 NCI-H716 cells were differentiated in matrigel-coated 12-plate and treated 48 h hours later.
(§7) The day of the experiment, wells were washed once with 1 ml of PBS and then cells were stimulated with 0.5 ml of DMEM (w/o serum, w/o phenol-red) containing 30 μM of selected compounds in STC1 and 100 μM in differentiated NCIH716 for 30 minutes. DMSO has been used as negative control, α-linolenic acid (ALA) (endogenous agonist) as positive control. After stimulations, supernatants were collected, centrifuged at 4000 rpm for 4′ at 4° C., and used for the GLP1 detection by ELISA.
On the technique in general: An ELISA detects its analyte on a solid surface through an enzyme-linked reagent.

The next assay deals with T2, human GPR120 (Homo sapiens, UniProt Q5NUL3).
T2 construct: expressed in transfected cells; host or cells: CHO-k1
T2 sequence (Q5NUL3 1-361): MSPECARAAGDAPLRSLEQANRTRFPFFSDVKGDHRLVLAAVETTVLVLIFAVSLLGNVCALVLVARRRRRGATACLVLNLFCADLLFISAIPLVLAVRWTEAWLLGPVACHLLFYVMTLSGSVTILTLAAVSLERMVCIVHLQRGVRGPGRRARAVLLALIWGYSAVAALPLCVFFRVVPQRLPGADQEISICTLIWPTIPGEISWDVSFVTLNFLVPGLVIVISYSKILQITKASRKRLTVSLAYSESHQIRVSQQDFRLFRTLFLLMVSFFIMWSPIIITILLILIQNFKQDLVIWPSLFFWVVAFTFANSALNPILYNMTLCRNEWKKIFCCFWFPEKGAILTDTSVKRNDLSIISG
The assay can be described thus: In vitro Ca2+ mobilization, CHO-k1 cells stably expressing human GPR120. The class given is cell-based. The settings on record: for AC50: intracellular calcium, CHO-k1 cells expressing human GPR120, read-out: Ca2+ hGPR120 AC50. The procedure: as §1, §2, §3, §4
On the technique in general: Calcium flux is commonly read through the fluorescence of an indicator in the cells.

In the next assay the test system is STC-1 cells. The assay is described as follows: In vitro GLP-1 secretion in STC-1 cells (ELISA). The class given is cell-based, murine. The settings on record: for fold induction at 30 µM: Mus musculus, STC-1, 0.5 h, compound at 30 μM for 30 minutes, STC-1 cells, read-out: GLP-1 RELEASE STC-1, fold of increase over DMSO. The procedure: as §5, §6, §7
Where [1] appears, read: intracellular calcium, CHO-k1 cells expressing human GPR40.

T1 sequence (O14842 whole entry): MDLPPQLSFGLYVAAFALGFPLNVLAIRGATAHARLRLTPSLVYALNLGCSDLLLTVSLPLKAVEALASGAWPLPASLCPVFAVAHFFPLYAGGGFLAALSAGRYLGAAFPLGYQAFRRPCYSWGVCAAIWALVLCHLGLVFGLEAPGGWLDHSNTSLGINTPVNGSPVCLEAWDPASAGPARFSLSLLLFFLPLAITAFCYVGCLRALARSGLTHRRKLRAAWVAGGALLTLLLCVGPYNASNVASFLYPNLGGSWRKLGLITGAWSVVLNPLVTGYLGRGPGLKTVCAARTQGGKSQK

Consider `Cc1cc(Oc2ccccc2)cc(C)c1NS(=O)(=O)c1cccc(CCCCCCC(=O)O)c1` [Example 33, 7-(3-(N-(2,6-dimethyl-4-phenoxyphenyl)sulfamoyl)phenyl)heptanoic acid], for which the “agonistic activity on GPR40 (AC50 in the calcium mobilization assay), in words” value on human GPR40 is reported as “low microMolar range”. The “Ca2+ hGPR40 AC50” value on human GPR40 (setting [1]) is “Inactive”. For the same compound, in the assay on NCI-H716 cells, the “GLP-1 secretion in NCI-H716 (human) cells, in words” value was “efficacious” and the fold induction at 100 µM was 1.58 ± 1.27. Moreover, at human GPR120, the “agonistic activity on GPR120 (AC50 in the calcium mobilization assay), in words” value is recorded as “low microMolar range” and the concentration at half-maximal activity (AC50) came to 18 µM. Besides, in the assay on STC-1 cells, the “GLP-1 secretion in STC1 (murine) cells, in words” value was “efficacious” and the fold induction at 30 µM came out at 3 ± 1.82.
Regarding `Cc1cc(OCc2ccccc2)cc(C)c1NS(=O)(=O)c1cccc(CCCCCCC(=O)O)c1` [Example 34, 7-(3-(N-(4-(benzyloxy)-2,6-dimethylphenyl)sulfamoyl)phenyl)heptanoic acid], the results for the half-maximal activity concentration (AC50) on human GPR40 (setting [1]) and on human GPR120 were 12.4 µM and 7 µM, respectively. Moreover, in the assay with NCI-H716 cells, the fold induction at 100 µM turned out to be 4.58 ± 0.26. The fold induction at 30 µM with STC-1 cells amounted to 5.5 ± 0.73.
For the compound `Cc1cc(OCCCS(C)(=O)=O)cc(C)c1NS(=O)(=O)c1cccc(CCCCCCC(=O)O)c1` [Example 35, 7-(3-(N-(2,6-dimethyl-4-(3(methylsulfonyl)propoxy)phenyl)sulfamoyl)phenyl)heptanoic acid], the results for the AC50 on human GPR40 (setting [1]) and on human GPR120 were 2.3 µM and 6.1 µM, respectively. Also, the fold induction at 100 µM in the assay on NCI-H716 cells came out at 4.2 ± 0.25. Besides, in the assay on STC-1 cells, the fold induction at 30 µM came out at 4.3 ± 0.61.
